Assay results: patent US20220153751A1, “BIFUNCTIONAL COMPOUNDS” (BioTheryX, Inc., priority 2018, published 2022)

Tests used:
Assay type in all cases: cell-based
[1] = target: T1, CK1α (Homo sapiens, UniProt P48729+Q96SW2); test: CK1α degradation assay (Western blot, MV-4-11 cells); conditions: MV4-11, 6-8 h
T1 construct: Whole cell extracts were prepared using RIPA buffer; endogenous in cells; host or cells: MV-4-11
Procedure: MV-4-11 cells were grown in RPMI 1640 media supplemented with 10% fetal bovine serum, streptomycin and penicillin.
Cells were cultured at approximately 10^6 cells per mL and incubated in DMSO or the indicated compound for 6-8 h. Whole cell extracts were prepared using RIPA buffer according to manufacturer's protocol (Pierce). Briefly, 3×10^6 cells were washed once in PBS, the cell pellets were resuspended in RIPA buffer and allowed to incubate for 15 minutes on ice. Cells debris was removed by centrifugation and the cleared whole cell lysates were transferred to new tubes for further analysis.
For Western blot analysis, whole cell protein extracts were separated on 4-12% SDS-polyacrylamide gels, transferred to nitrocellulose and probed with the indicated primary antibodies. Membranes were subsequently washed and probed with the appropriate IRDye secondary antibodies (LI-COR). The signal was detected using the Odyssey Imaging System (LI-COR).
The following antibodies were used in these studies: Anti-eRF3/GSPT1: Abcam, ab126090 (Cambridge, Mass.); Anti-Ikaros: Abcam, ab191394 (Cambridge, Mass.); Anti-CK1α: Abcam, ab108296 (Cambridge, Mass.); Anti-CDK9: Santa Cruz Biotechnology, sc13130 (Dallas, Tex.); Anti-CDK16: Millipore Sigma, HPA001366 (St. Louis, Mo.); 3-actin (8H10comD10) mouse monoclonal antibody: Cell Signaling Technology, #3700 (Danvers, Mass.); IRDye 680RD Goat anti-rabbit antibody: LI-COR, 926-68071 (Lincoln, Nebr.); IRDye 800CW Goat anti-mouse antibody: LI-COR, 926-32210 (Lincoln, Nebr.).
CDK9 activities are shown in Table 4 at two different concentrations. CDK16 activities are shown in Table 5 at two different concentrations. In each of Tables 1-5, the % degradation values are reported as “A”, “B”, “C”, or “D”. “A” represents a % degradation value of less than 25% (value <25%). “B” represents a % degradation value of equal to or more than 25% and less than 50% (25%≤value<50%). “C” represents a % degradation value of equal to or more than 50% and less than 75% (50%≤value<75%). “D” represents a % degradation value of equal to or more than 75% (value ≥75%).

[2] = target: T2, IKAROS (Homo sapiens, UniProt Q13422+Q96SW2); test: IKAROS degradation assay (Western blot, MV-4-11 cells); conditions: MV4-11, 6-8 h
T2 construct: endogenous in cells; host or cells: MV-4-11
Outline: (§1)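 MV-4-11 cells (~10^6 cells/mL, RPMI 1640 with 10% FBS) were treated with compound or DMSO for 6-8 h. RIPA whole-cell lysates were run on SDS-PAGE, immunoblotted and detected with IRDye secondaries. % degradation is binned (<25%, 25–50%, 50–75%, ≥75%); CDK9 and CDK16 were tested at two concentrations.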

[3] = target: T3, GSPT1 (Homo sapiens, UniProt P15170+Q96SW2); test: GSPT1 degradation assay (Western blot, MV-4-11 cells); conditions: MV4-11, 6-8 h
T3 construct: Whole cell extracts were prepared using RIPA buffer; endogenous in cells; host or cells: MV-4-11
Outline: as §1

[4] = system: MOLM-13 cells; test: MOLM-13 cell viability assay (CellTiter-Glo); conditions: Homo sapiens, MOLM-13, 72 h, 3 days, read-out: MOLM-13 Cell Viability % DMSO at 1 μM
Outline: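 MOLM-13 cells at 2500 cells/well were exposed to compound for 3 days at 37 °C. Viability was read by CellTiter-Glo luminescence and expressed as % of DMSO control, binned A (<50%), B (50–<70%), C (70–<90%) or D (≥90%).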

[5] = target: T4, CDK9 (Homo sapiens, UniProt P50750); test: CDK9 degradation assay (Western blot, MV-4-11 cells); conditions: 6-8 h; for Dmax at 0.1 µM: MV4-11, 0.1 μM; for Dmax at 1 µM: MV4-11, 1 μM
T4 construct: Whole cell extracts were prepared using RIPA buffer; endogenous in cells; host or cells: MV-4-11
Outline: as §1

[6] = target: T5, CDK16 (Homo sapiens, UniProt Q00536); test: CDK16 degradation assay (Western blot, MV-4-11 cells); conditions: 6-8 h; for Dmax at 0.1 µM: MV4-11, 0.1 μM; for Dmax at 1 µM: MV4-11, 1 μM
T5 construct: Whole cell extracts were prepared using RIPA buffer; endogenous in cells; host or cells: MV-4-11
Outline: as §1

T3 sequence (P15170 whole entry): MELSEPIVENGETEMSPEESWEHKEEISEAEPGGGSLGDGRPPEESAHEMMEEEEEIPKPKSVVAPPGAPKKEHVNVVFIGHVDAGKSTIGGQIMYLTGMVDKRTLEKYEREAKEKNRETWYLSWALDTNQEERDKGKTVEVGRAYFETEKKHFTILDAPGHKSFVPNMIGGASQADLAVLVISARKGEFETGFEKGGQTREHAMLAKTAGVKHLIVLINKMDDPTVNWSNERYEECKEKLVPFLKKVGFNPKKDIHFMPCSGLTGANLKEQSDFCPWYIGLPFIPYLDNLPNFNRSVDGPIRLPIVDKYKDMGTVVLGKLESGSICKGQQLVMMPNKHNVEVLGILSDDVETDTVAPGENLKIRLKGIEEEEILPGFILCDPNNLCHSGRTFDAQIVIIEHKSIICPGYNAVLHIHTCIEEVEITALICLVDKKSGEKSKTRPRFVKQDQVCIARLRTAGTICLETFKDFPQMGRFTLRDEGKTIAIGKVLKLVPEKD
T3 sequence (Q96SW2 whole entry): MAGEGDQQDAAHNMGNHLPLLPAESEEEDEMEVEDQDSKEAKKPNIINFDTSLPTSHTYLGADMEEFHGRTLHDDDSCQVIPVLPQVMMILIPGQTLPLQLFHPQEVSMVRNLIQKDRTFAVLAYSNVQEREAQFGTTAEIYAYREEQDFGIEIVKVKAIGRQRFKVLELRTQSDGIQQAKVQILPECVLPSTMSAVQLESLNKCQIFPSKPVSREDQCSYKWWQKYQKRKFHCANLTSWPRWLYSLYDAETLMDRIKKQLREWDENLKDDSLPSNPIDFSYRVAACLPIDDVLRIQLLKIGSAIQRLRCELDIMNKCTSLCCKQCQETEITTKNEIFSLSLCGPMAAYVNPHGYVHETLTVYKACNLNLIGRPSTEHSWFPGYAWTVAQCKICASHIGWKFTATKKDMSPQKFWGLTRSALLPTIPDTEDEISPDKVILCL
T3 sequence (Q16531 whole entry partner): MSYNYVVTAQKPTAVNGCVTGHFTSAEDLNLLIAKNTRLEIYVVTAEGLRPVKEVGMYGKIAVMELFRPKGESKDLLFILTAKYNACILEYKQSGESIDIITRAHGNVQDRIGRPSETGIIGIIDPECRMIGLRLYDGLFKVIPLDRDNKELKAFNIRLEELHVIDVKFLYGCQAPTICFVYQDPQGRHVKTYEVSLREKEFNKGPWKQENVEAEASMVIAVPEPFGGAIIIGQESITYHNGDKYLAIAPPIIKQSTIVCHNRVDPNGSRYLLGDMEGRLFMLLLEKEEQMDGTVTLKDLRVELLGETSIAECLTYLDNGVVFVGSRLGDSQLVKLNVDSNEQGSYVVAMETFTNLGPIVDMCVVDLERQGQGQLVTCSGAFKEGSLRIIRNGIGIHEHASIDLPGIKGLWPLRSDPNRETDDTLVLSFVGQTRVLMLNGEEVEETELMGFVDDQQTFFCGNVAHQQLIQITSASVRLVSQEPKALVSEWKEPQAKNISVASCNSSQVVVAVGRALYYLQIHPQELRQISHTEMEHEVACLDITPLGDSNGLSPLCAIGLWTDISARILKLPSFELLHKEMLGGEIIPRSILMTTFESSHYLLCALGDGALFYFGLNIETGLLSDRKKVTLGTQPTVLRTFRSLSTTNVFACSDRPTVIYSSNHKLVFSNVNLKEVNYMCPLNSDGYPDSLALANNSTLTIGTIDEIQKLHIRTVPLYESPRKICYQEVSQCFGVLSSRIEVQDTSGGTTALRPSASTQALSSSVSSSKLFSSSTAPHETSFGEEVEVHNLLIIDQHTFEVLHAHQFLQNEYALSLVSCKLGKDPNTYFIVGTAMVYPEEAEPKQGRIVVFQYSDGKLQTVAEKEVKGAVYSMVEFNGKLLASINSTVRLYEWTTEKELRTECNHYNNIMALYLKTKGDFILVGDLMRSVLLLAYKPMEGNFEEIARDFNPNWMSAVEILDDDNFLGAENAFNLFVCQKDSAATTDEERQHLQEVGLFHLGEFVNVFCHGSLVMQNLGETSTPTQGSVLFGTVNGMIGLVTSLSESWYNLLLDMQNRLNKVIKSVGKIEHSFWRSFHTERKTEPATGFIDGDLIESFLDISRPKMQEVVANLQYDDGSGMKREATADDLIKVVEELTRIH
T1 sequence (P48729 whole entry): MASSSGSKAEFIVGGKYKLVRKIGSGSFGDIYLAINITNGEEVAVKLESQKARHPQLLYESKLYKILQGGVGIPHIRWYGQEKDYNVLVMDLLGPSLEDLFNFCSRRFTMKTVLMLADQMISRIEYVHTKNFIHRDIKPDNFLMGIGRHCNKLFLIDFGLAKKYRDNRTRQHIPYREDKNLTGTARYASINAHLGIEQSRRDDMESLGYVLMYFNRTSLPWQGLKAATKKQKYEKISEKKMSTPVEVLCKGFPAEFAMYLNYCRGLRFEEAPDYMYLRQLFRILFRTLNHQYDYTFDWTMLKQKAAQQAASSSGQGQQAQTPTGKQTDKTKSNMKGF
T1 sequence (Q96SW2 whole entry): as the sequence (Q96SW2 whole entry) above
T1 sequence (Q16531 whole entry partner): as the sequence (Q16531 whole entry partner) above
T5 sequence (Q00536 whole entry): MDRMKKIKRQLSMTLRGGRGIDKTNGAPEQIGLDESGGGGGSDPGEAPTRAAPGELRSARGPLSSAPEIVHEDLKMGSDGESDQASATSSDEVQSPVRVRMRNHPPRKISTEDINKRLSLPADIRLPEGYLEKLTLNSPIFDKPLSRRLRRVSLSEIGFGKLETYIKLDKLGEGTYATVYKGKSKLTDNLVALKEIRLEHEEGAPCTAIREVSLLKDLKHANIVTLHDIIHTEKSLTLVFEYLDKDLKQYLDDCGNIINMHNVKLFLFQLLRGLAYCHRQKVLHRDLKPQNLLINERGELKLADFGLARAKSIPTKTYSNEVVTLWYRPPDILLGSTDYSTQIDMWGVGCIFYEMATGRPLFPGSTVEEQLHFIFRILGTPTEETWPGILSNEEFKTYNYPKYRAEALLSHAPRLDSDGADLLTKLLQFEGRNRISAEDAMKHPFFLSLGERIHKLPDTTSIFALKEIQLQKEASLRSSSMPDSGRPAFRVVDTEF
T4 sequence (P50750 whole entry): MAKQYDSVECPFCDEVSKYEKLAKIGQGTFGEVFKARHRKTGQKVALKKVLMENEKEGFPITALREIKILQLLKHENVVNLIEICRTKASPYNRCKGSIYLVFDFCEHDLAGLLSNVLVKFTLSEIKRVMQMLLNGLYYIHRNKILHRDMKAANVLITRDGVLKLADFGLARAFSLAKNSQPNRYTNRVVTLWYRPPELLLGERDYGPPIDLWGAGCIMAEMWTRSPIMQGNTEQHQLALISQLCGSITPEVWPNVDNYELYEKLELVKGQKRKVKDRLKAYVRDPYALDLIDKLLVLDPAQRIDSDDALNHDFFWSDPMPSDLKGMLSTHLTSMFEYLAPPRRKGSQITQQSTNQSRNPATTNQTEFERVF
T2 sequence (Q13422 whole entry): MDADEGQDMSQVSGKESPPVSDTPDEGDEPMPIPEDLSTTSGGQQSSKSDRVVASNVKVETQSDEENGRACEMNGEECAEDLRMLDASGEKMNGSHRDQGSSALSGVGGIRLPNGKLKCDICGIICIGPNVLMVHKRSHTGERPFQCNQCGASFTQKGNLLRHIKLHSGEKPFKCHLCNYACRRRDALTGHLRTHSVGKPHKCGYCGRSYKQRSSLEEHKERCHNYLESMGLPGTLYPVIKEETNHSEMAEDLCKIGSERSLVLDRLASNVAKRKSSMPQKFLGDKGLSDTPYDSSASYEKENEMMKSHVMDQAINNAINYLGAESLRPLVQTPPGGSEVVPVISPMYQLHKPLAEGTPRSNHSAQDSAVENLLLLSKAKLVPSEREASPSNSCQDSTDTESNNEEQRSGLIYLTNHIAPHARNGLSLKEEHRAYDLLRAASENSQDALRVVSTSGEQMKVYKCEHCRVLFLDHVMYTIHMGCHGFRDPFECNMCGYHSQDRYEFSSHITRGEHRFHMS
T2 sequence (Q96SW2 whole entry): as the sequence (Q96SW2 whole entry) above
T2 sequence (Q16531 whole entry partner): as the sequence (Q16531 whole entry partner) above

Structure (SMILES)	Dmax at 1 µM [1] [%]	Dmax at 1 µM [2] [%]	Dmax at 1 µM [3] [%]	Dmax at 0.1 µM [5] [%]	Dmax at 1 µM [5] [%]	Dmax at 0.1 µM [6] [%]	Dmax at 1 µM [6] [%]	viability at 1 µM [4] [%]
Cn1ncc(-c2nc(N[C@H]3CC[C@H](NCCOCCOCCOCCOCCNc4cccc5c4C(=O)N(C4CCC(=O)NC4=O)C5=O)CC3)ncc2Cl)c1CC1CC1 (some centres unmarked) [Compound 64, 4-((14-(((1r,4r)-4-((5-chloro-4-(5-(cyclopropylmethyl)-1-methyl-1H-pyrazol-4-yl)pyrimidin-2-yl)amino)cyclohexyl)amino)-3,6,9,12-tetraoxatetradecyl)amino)-2-(2,6-dioxopiperidin-3-yl)isoindoline-1,3-dione]	25 to 50	≥ 75	≥ 75					> 90
Cn1ncc(-c2nc(N[C@H]3CC[C@H](NCC(=O)NCCCCNCC(=O)NCc4scc5c4CN(C4CCC(=O)NC4=O)C5=O)CC3)ncc2F)c1CC1CC1 (some centres unmarked) [Compound 39, 2-(((1r,4r)-4-((4-(5-(cyclopropylmethyl)-1-methyl-1H-pyrazol-4-yl)-5-fluoropyrimidin-2-yl)amino)cyclohexyl)amino)-N-(4-((2-(((5-(2,6-dioxopiperidin-3-yl)-4-oxo-5,6-dihydro-4H-thieno[3,4-c]pyrrol-1-yl)methyl)amino)-2-oxoethyl)amino)butyl)acetamide]	25 to 50	25 to 50	50 to 75	25 to 50	≥ 75	< 25	≥ 75	> 90
Cn1ncc(-c2nc(N[C@H]3CC[C@H](NCC(=O)NCCOCCOCCOCCNc4cccc5c4C(=O)N(C4CCC(=O)NC4=O)C5=O)CC3)ncc2F)c1CC1CC1 (some centres unmarked) [Compound 50, 2-(((1r,4r)-4-((4-(5-(cyclopropylmethyl)-1-methyl-1H-pyrazol-4-yl)-5-fluoropyrimidin-2-yl)amino)cyclohexyl)amino)-N-(2-(2-(2-(2-((2-(2,6-dioxopiperidin-3-yl)-1,3-dioxoisoindolin-4-yl)amino)ethoxy)ethoxy)ethoxy)ethyl)acetamido]	25 to 50	≥ 75	50 to 75					> 90
CC(C)(C)c1cnc(CSc2cnc(NC(=O)C3CCN(CC(=O)NCCCCCNC(=O)NCc4scc5c4CN(C4CCC(=O)NC4=O)C5=O)CC3)s2)o1 (centres unmarked) [Compound 11, N-(5-(((5-(tert-butyl)oxazol-2-yl)methyl)thio)thiazol-2-yl)-1-(2-((5-(3-((5-(2,6-dioxopiperidin-3-yl)-4-oxo-5,6-dihydro-4H-thieno[3,4-c]pyrrol-1-yl)methyl)ureido)pentyl)amino)-2-oxoethyl)piperidine-4-carboxamide]	25 to 50		25 to 50					> 90
CC(C)(C)c1cnc(CSc2cnc(NC(=O)C3CCN(CC(=O)NCCCNCC(=O)NCc4cc5c(s4)C(=O)N(C4CCC(=O)NC4=O)C5)CC3)s2)o1 (centres unmarked) [Compound 52, N-(5-(((5-(tert-butyl)oxazol-2-yl)methyl)thio)thiazol-2-yl)-1-(2-((3-((2-(((5-(2,6-dioxopiperidin-3-yl)-6-oxo-5,6-dihydro-4H-thieno[2,3-c]pyrrol-2-yl)methyl)amino)-2-oxoethyl)amino)propyl)amino)-2-oxoethyl)piperidine-4-carboxamide]	25 to 50	25 to 50	50 to 75					> 90
CC(C)(C)c1cnc(CSc2cnc(NC(=O)C3CCN(CC(=O)NCCCCCNCC(=O)NCc4scc5c4CN(C4CCC(=O)NC4=O)C5=O)CC3)s2)o1 (centres unmarked) [Compound 33, N-(5-(((5-(tert-butyl)oxazol-2-yl)methyl)thio)thiazol-2-yl)-1-(2-((5-((2-(((5-(2,6-dioxopiperidin-3-yl)-4-oxo-5,6-dihydro-4H-thieno[3,4-c]pyrrol-1-yl)methyl)amino)-2-oxoethyl)amino)pentyl)amino)-2-oxoethyl)piperidine-4-carboxamide]	≥ 75	50 to 75	≥ 75	≥ 75	≥ 75	< 25	50 to 75	> 90

More lines, main results first:

Dmax at 1 µM [1] [%]	Dmax at 1 µM [2] [%]	Dmax at 1 µM [3] [%]	Dmax at 0.1 µM [5] [%]	Dmax at 1 µM [5] [%]	Dmax at 0.1 µM [6] [%]	Dmax at 1 µM [6] [%]	Structure (SMILES)	viability at 1 µM [4] [%]
< 25	25 to 50	25 to 50					Cn1ncc(-c2nc(N[C@H]3CC[C@H](NCC(=O)NCCNC(=O)NCc4cc5c(s4)C(=O)N(C4CCC(=O)NC4=O)C5)CC3)ncc2Cl)c1CC1CC1 (some centres unmarked) [Compound 45, 2-(((1r,4r)-4-((5-chloro-4-(5-(cyclopropylmethyl)-1-methyl-1H-pyrazol-4-yl)pyrimidin-2-yl)amino)cyclohexyl)amino)-N-(2-(3-((5-(2,6-dioxopiperidin-3-yl)-6-oxo-5,6-dihydro-4H-thieno[2,3-c]pyrrol-2-yl)methyl)ureido)ethyl)acetamide]	> 90
25 to 50	50 to 75	≥ 75	25 to 50	25 to 50	< 25	50 to 75	Cn1ncc(-c2nc(N[C@H]3CC[C@H](NCC(=O)NCCCCNCC(=O)NCc4cc5c(s4)C(=O)N(C4CCC(=O)NC4=O)C5)CC3)ncc2Cl)c1CC1CC1 (some centres unmarked) [Compound 35, 2-(((1r,4r)-4-((5-chloro-4-(5-(cyclopropylmethyl)-1-methyl-1H-pyrazol-4-yl)pyrimidin-2-yl)amino)cyclohexyl)amino)-N-(4-((2-(((5-(2,6-dioxopiperidin-3-yl)-6-oxo-5,6-dihydro-4H-thieno[2,3-c]pyrrol-2-yl)methyl)amino)-2-oxoethyl)amino)butyl)acetamide]	> 90
25 to 50	50 to 75	≥ 75	50 to 75	≥ 75	25 to 50	50 to 75	Cn1ncc(-c2nc(N[C@H]3CC[C@H](NCC(=O)NCCNCC(=O)NCc4cc5c(s4)C(=O)N(C4CCC(=O)NC4=O)C5)CC3)ncc2Cl)c1CC1CC1 (some centres unmarked) [Compound 40, 2-(((1r,4r)-4-((5-chloro-4-(5-(cyclopropylmethyl)-1-methyl-1H-pyrazol-4-yl)pyrimidin-2-yl)amino)cyclohexyl)amino)-N-(2-((2-(((5-(2,6-dioxopiperidin-3-yl)-6-oxo-5,6-dihydro-4H-thieno[2,3-c]pyrrol-2-yl)methyl)amino)-2-oxoethyl)amino)ethyl)acetamide]	70 to 90
< 25	50 to 75	50 to 75	50 to 75	50 to 75	25 to 50	50 to 75	Cn1ncc(-c2nc(N[C@H]3CC[C@H](NCC(=O)NCCCCCNCC(=O)NCc4cc5c(s4)C(=O)N(C4CCC(=O)NC4=O)C5)CC3)ncc2Cl)c1CC1CC1 (some centres unmarked) [Compound 30, 2-(((1r,4r)-4-((5-chloro-4-(5-(cyclopropylmethyl)-1-methyl-1H-pyrazol-4-yl)pyrimidin-2-yl)amino)cyclohexyl)amino)-N-(5-((2-(((5-(2,6-dioxopiperidin-3-yl)-6-oxo-5,6-dihydro-4H-thieno[2,3-c]pyrrol-2-yl)methyl)amino)-2-oxoethyl)amino)pentyl)acetamide]	> 90
